Results taken from US20230133393A1, “DIBORIDE MICROPATTERNED SURFACES FOR CELL CULTURE” (University of Houston System, priority 2020, published 2023).
Entries after “also recorded” stand apart in the source; their conditions may differ.

Tested on: SKOV3 cells
Assay: Effect of SAHA on SKOV3 3D aggregates and cellular bridges cultured on Si—TiB2 substrate
Type: cell-based
Description: Cell culture of ovarian cancer cell lines: SKOV3 and OVCAR3 cell lines were cultured in Cancer Media (CM) ([…] with glutamine (02-0205 VWR Life Science), 1% antibiotics (Sigma-Aldrich A5955), and 0.1% insulin (ABM TM053)). For cell culture on substrates CM was supplemented with 10 ng/mL human FGF2 (Sigma-Aldrich F0291)+1% heparin (Sigma-Aldrich H3393). Cells were cultured in a humidified incubator at 37° C. with 5% CO2.
The inventors used their Si-diborides substrates (described in [200]) for culture of SKOV3 (ATCC® HTB-77™) cancer cells of high invasive potential. Cells were seeded on Si—TiB2 substrates (2×2 cm) at a density of 600/mm^2, and each substrate will be placed in a well of a 24-well dish and cultured in RPMI 1640 with glutamine, 20% FBS, 1% antibiotics, 0.01 mg/mL Insulin, 10 ng/ml FGF2 and 1% heparin 1 over 10 days to establish a monolayer (days 1-3) or allowed to form 3D aggregates (days 4-10). A 2×2 cm substrate can accommodate at least 500, 300 μm circle patterns (aka 500 3D aggregates of ˜150-200 μm diameter and 60-80 μm thickness). Based on preliminary data, the rate of “cellular bridge” formation is 13%/substrate or 50%/aggregate. As shown in FIGS. 9A-C, FIGS. 10A-C and FIG. 11A-B, highly invasive SKOV3 begin as monolayers and then self-assemble to form 3D aggregates. Importantly, the inventors are able to control dynamics of aggregation and size and number of aggregates by tuning pattern geometry and cell seeding density. 3D aggregates of static (compact aggregates without any migratory sequalae) and migratory phenotype (identified via cells migrating away from an aggregate and establishing connections with neighboring aggregates; see FIGS. 12A-B) can be identified post-culturing at day 2, day 4, day 6 and day 8. […] Thus, these capture time points have data on cell monolayers (Day 2), self-assembly (Days 3-4) and compact 3D aggregates (Days 5-8). Migratory 3D aggregate phenotypes are visible at Days 5 with maximum numbers of cellular bridges across aggregates seen at Days 6-7. […]

O=C(CCCCCCC(=O)Nc1ccccc1)NO [SAHA, suberoylanilide hydroxamic acid] was tested, and the “effect on size of 3D aggregates” value (3 μM SAHA, treatment on day 7 post-seeding) was “reduce the size of 3D aggregates”, the “effect on cellular bridges (invading multicellular microstructures)” value (3 μM SAHA, treatment on day 7 post-seeding, imaged Day 9) was “disassociates invading multicellular microstructures; also recorded: loss of cellular bridges” and the “reduction in size (aggregate depth) post-treatment with SAHA” value (SKOV3 3D aggregates on Si—TiB2, treated day 7 for 48 hours, compared to controls, mean±SEM, n=3, p<0.001) was ~50%.
